Measured values taken from PMC6651196, “Preclinical Evaluation of Radiolabeled Peptides for PET Imaging of Glioblastoma Multiforme” (Molecules, 2019).
Entries after “also recorded” stand apart in the source; their conditions may differ. Read-outs that look alike come from different tables or passages of the source.

Tests used:
[1] = system: U-87 MG tumor xenografts; assay: µPET/CT imaging
Description: (§1) SCID female mice (Harlan, Indianapolis, IN, USA) at 6–8 weeks of age were subcutaneously injected into the right flank with 5 × 10^6 U-87 MG cells mixed with Matrigel Matrix (Corning, Corning, NY, USA) at a 1:1 ratio. The tumor growth was continuously monitored by caliperation. When the tumor volume reached 100–300 mm^3 (i.e., 6–8 weeks after inoculation of cells), the mice were used for ex vivo biodistribution studies or µPET/CT imaging. The experimental animals were housed in a specific-pathogen-free animal facility. […] The number of animals was reduced as much as possible (n = 3 per group and time point) for all in vivo experiments. The tracer injection and small animal imaging were carried out under 2% isoflurane anesthesia (FORANE, Abbott Laboratories, Abbott Park, IL, USA) to minimize animal suffering and to prevent animal motion.
(§2) Experimental animals were imaged using microPET/SPECT/CT system Albira (Bruker, Billerica, Massachusetts, USA). Mice were r.o. injected with the radiolabeled tracer at a dose of 5–10 MBq (corresponding to 1–2 μg of peptide for animals injected with ^68Ga-peptides) per animal. Anesthetized animals were placed in a prone position in the Albira system before the start of imaging. Static PET/CT images were acquired over 30 min interval starting 30 and 90 minutes after injection. A 10-min PET scan (axial FOV 148 mm) was performed, followed by a double CT scan (axial FOV 65 mm, 45 kVp, 400 μA, at 400 projections). Scans were reconstructed with the Albira software (Bruker Biospin Corporation, Woodbridge, CT, USA) using the maximum likelihood expectation maximization (MLEM) and filtered back-projection (FBP) algorithms. The PMOD software (PMOD Technologies, Zurich, Switzerland) was used for the image analysis and tracer uptake quantification. Three-dimensional volume rendered images were created in VolView software (Kitware, Clifton Park, NY, USA). The data obtained by PET scan were quantified in PMOD via manually selected volumes of interest (VOIs) and expressed as standardized uptake values (SUV). Using SUVs for the tumor and brain regions the tumor to brain ratios were calculated.

[2] = system: U-87 MG cells; assay: Cell uptake assay with and without excess of cold peptide; type: cell-based, human; settings: for Accumulation in U-87 MG cells: 90 min, 37 °C
Description: Human glioblastoma multiforme U-87 MG cells (ATCC, Manassas, VA, USA) were cultured in Dulbecco’s Modified Eagle Medium (Sigma Aldrich, St. Louis, MO, USA) supplemented with 10% fetal bovine serum, 0.1 mM non-essential amino acids and 1.0 mM sodium pyruvate at 37 °C in a 5% carbon dioxide humidified incubator. The cells were subcultured and used for experiments at a confluency of 70–90%.
Cell uptake assay was performed in 24-well plates with U-87 MG cell at high confluency. The assay itself was carried out using a dedicated buffer instead of the regular cell culture media. The buffer consists of 25 mM Tris/HCl, 5.4 mM KCl, 1.8 mM CaCl2, 0.8 mM MgSO4, 5 mM glucose, 140 mM NaCl in H2O [34].
The cells were incubated with ^68Ga-labeled RGD peptides (20 µM) alone and also with excess (2 mM) of cold RGD peptide for 90 min (37 °C) in the buffer described above. The cells were rinsed with PBS, lysed in 0.1 M NaOH and measured for radioactivity in a gamma counter (PerkinElmer, Waltham, Massachusetts, USA). The uptake was calculated as the mean of the percentage of the applied dose ± standard deviation.

[3] = µPET/CT imaging; settings: female, SCID, mouse, tumor and brain (PET volumes of interest), total radioactivity
Description: as §1, §2

[4] = Ex vivo biodistribution; settings: mouse; for tissue to tissue ratio at 0.5 h / tissue to tissue ratio at 1.5 h: female, SCID, total radioactivity, from ex vivo biodistribution; for tissue to tissue ratio at 1.5 h: 90 min p.i.
Description: (§3) SCID female mice (Harlan, Indianapolis, IN, USA) at 6–8 weeks of age were subcutaneously injected into the right flank with 5 × 10^6 U-87 MG cells mixed with Matrigel Matrix (Corning, Corning, NY, USA) at a 1:1 ratio. The tumor growth was continuously monitored by caliperation. When the tumor volume reached 100–300 mm^3 (i.e., 6–8 weeks after inoculation of cells), the mice were used for ex vivo biodistribution studies or µPET/CT imaging. […] The number of animals was reduced as much as possible (n = 3 per group and time point) for all in vivo experiments. The tracer injection and small animal imaging were carried out under 2% isoflurane anesthesia (FORANE, Abbott Laboratories, Abbott Park, IL, USA) to minimize animal suffering and to prevent animal motion.
(§4) For ex vivo biodistribution studies, radiolabeled tracers were diluted with saline. The prepared solutions were applied retro-orbitally (r.o.) to the mice [35] at a dose of 1–2 MBq per mouse corresponding to 0.2–0.4 µg of the peptide. The mice were sacrificed by cervical dislocation 30 min and 90 min post-injection and organs of interest (blood, spleen, pancreas, stomach, intestine, kidneys, liver, heart, lungs, muscle, bone, and tumor) were collected. The samples were weighed and the radioactivity was measured by an automatic gamma counter. The accumulation of radiotracer in studied organs was expressed as a percentage of injected dose per gram of organ.

[5] = Partition coefficient (log P), octanol/PBS
Description: Labeled peptide was diluted with 600 μL of phosphate-buffered saline (PBS), and 50 µL of the solution was mixed in the test tube with 450 μL of PBS and 500 μL of octanol. The sample was placed on the shaker (1000 RPM) for 20 min and then centrifuged at 15,000 RPM for 1 min. Subsequently, 50 µL from both octanol and water layer were collected and measured on an automatic gamma counter (PerkinElmer, Waltham, Massachusetts, USA). Partition coefficient was calculated as the decadic logarithm of the ratio of octanol/water activity.

[6] = Plasma stability, HPLC radiochemical purity; settings: human
Description: (§5) 100 μL of the labeled peptide was mixed with 400 μL of human plasma (Sigma Aldrich, St. Louis, MO, USA). This mixture was incubated at 37 °C and the samples for HPLC analysis to determine the radiochemical purity were taken at selected time points (30, 60, and 120 min). The individual samples were adjusted before the injection on HPLC—every sample was mixed with acetonitrile (Roth, Karlsruhe, Germany) and placed on the shaker (450 rpm) for 60 s and then centrifuged (20,000 RCF, 3 min), followed by removing the supernatant. Finally, the supernatant was analyzed using HPLC.

[7] = Plasma protein binding, size-exclusion spin column; settings: human plasma, 37 °C
Description: (§6) 10 µL of the labeled peptide was mixed with 190 μL of human plasma (Sigma Aldrich, St. Louis, MO, USA), and incubated at 37 °C. Twenty-five µL of sample were collected at 30, 60, and 120 min time intervals for the determination of protein binding. The samples were separated by size-exclusion chromatography (illustra MicroSpin G-50 Column, GE Healthcare, UK) by centrifugation (2000 × g, 1 min). The eluate (protein-bound) and appropriate column (non-protein-bound) were measured on an automatic gamma counter. The percentage of plasma protein binding (PPB) was calculated as the ratio of the activity in the eluate and the activity of the whole sample (column plus the eluate). The blank determination of protein binding, i.e., incubation of the radiotracer in PBS buffer followed by separation of the sample on gel column was performed as the control step.

[8] = Stability in physiological pH (pH 7), HPLC radiochemical purity; settings: 37 °C
Description: The peptides were labeled as described above. Subsequently, 100 μL of 1.14 M sodium acetate was added to adjust the pH to 7.0. The mixture was incubated at 37 °C and the samples for HPLC analysis to determine the radiochemical purity were taken at selected time points (30, 60, and 120 min) and directly injected on HPLC.

[9] = Stability in the presence of competing metal (FeCl3), HPLC radiochemical purity; settings: 37 °C
Description: 50 μL of ^68Ga-labeled peptides were mixed with 150 μL of 0.1 mM FeCl3 (Sigma Aldrich, St. Louis, MO, USA). The mixture was incubated at 37 °C and the samples for HPLC analysis to determine the radiochemical purity were taken at selected time points (30, 60 and 120 min) and directly injected on HPLC.

[10] = Stability in the presence of competing chelator (DTPA), HPLC radiochemical purity; settings: 37 °C
Description: 50 μL of ^68Ga-labeled peptides were mixed with 150 μL of 6 mM DTPA solution (Sigma Aldrich, St. Louis, MO, USA). The mixture was then incubated at 37 °C and the samples were processed for HPLC analysis to determine the radiochemical purity were taken at selected time points (30, 60, and 120 min) and directly injected on HPLC.

[11] = human, plasma
Description: as §6

[12] = mouse, in vivo
Description: as §3, §4

[13] = system: U-87 MG tumor SCID mouse; settings: in vivo
Description: as §3, §4

[14] = in vivo; settings: female, SCID, mouse, total radioactivity
Description: as §3, §4

[15] = in vivo; settings: female, SCID, mouse, total radioactivity; remark: listed apart in the source
Description: as §1, §2

[16] = in vitro; settings: human, plasma
Description: as §5

[17] = system: U-87 MG tumor SCID mouse; assay: Ex vivo biodistribution; settings: 90 min p.i., from ex vivo biodistribution
Description: as §3, §4

[18] = tumor and blood, Tumor to blood ratio, 30 min p.i.
[19] = tumor and blood, Tumor to blood ratio
[20] = tumor and kidney, Tumor to kidney ratio, 30 min p.i.
[21] = tumor and kidney, Tumor to kidney ratio
[22] = tumor and muscle, Tumor to muscle ratio, 30 min p.i.
[23] = tumor and muscle, Tumor to muscle ratio

| SMILES | Accumulation in U-87 MG cells ([2]; normal cells, 20 µM) | tissue to tissue ratio at 1.5 h [3] | tissue to tissue ratio at 0.5 h [4, 18] | tissue to tissue ratio at 1.5 h [4, 19] | tissue to tissue ratio at 0.5 h [4, 20] | tissue to tissue ratio at 1.5 h [4, 21] | tissue to tissue ratio at 0.5 h [4, 22] | tissue to tissue ratio at 1.5 h [4, 23] | logP [5] | remaining at 0.5 h [6] [%] | remaining at 1 h [6] [%] | remaining at 2 h [6] [%] | Plasma Protein Binding (%) ([7]; incubation 30 min) | Plasma Protein Binding (%) ([7]; incubation 60 min) | Plasma Protein Binding (%) ([7]; incubation 120 min) | % Stability in pH 7 ([8]; 30 min) [%] | % Stability in pH 7 ([8]; 60 min) [%] | % Stability in pH 7 ([8]; 120 min) [%] | % Stability in 0.1 M FeCl3 ([9]; 30 min) [%] | % Stability in 0.1 M FeCl3 ([9]; 60 min) [%] | other results |
| --- | --- | --- | --- | --- | --- | --- | --- | --- | --- | --- | --- | --- | --- | --- | --- | --- | --- | --- | --- | --- | --- |
| OC[C@H]1OC(O)[C@H](F)[C@@H](O)[C@@H]1O (stereo partly drawn) [^18F-FDG, ^18F-fluorodeoxyglucose, reference compound] | – | – | – | – | – | – | – | – | – | – | – | – | – | – | – | – | – | – | – | – | PET/CT visualization of the tumor ([1]; mouse, in vivo): allowed clear imaging of the tumor |
| Cc1cn([C@H]2C[C@H]([18F])[C@@H](CO)O2)c(=O)[nH]c1=O [^18F-FLT, ^18F-fluorothymidine, reference compound] | – | – | – | – | – | – | – | – | – | – | – | – | – | – | – | – | – | – | – | – | PET/CT visualization of the tumor ([1]; 30 and 90 min p.i.): could also be imaged |
| N=C(N)NCCC[C@@H]1NC(=O)[C@H](CCCCNC(=O)CN2CCN(CC(=O)O)CCN(CC(=O)O)CCN(CC(=O)O)CC2)NC(=O)[C@@H](Cc2ccccc2)NC(=O)[C@H](CC(=O)O)NC(=O)CNC1=O [^68Ga-DOTA-c(RGDfK), DOTA-c(RGDfK), metal not drawn] | lowest | 4.7 | 1.09 | 14.7 | 0.29 | 1.43 | 2.42 | 13.5 | -3.43 ± 0.11 | 99.23 ± 0.18 | 99.14 ± 0.19 | 98.81 ± 0.33 | 2.39 | 2.65 | 3.29 | 99.60 ± 0.23 | 99.51 ± 0.13 | 99.49 ± 0.20 | 97.04 ± 1.24 | 96.76 ± 1.21 | Uptake in U-87 cells compared to ^68Ga-NODAGA-c(RGDyK)2 ([2]; normal cells): about 50%; % Stability in 0.1 M FeCl3 ([9]; 120 min): 95.83 ± 1.04%; % Stability in 6 mM DTPA ([10]; 30 min): 99.39 ± 0.43%; % Stability in 6 mM DTPA ([10]; 60 min): 99.39 ± 0.54%; % Stability in 6 mM DTPA ([10]; 120 min): 99.06 ± 0.57% |
| CSCC[C@H](NC(=O)[C@H](CC(C)C)NC(=O)CNC(=O)[C@H](Cc1ccccc1)NC(=O)[C@H](Cc1ccccc1)NC(=O)[C@H](CCC(N)=O)NC(=O)[C@H](CCC(N)=O)NC(=O)[C@@H]1CCCN1C(=O)[C@H](CCCCN)NC(=O)[C@@H]1CCCN1C(=O)[C@H](CCCNC(=N)N)NC(=O)CN1CCN(CC(=O)O)CCN(CC(=O)O)CCN(CC(=O)O)CC1)C(N)=O [^68Ga-DOTA-substance P, DOTA-substance P, metal not drawn] | 0.3 % of the applied dose | – | – | – | – | – | – | – | – | – | – | – | – | – | – | – | – | – | – | – | Accumulation in U-87 MG cells ([2]; blocked with excess (2 mM) of cold peptide): 0.3 % of the applied dose; Uptake in U-87 cells compared to ^68Ga-NODAGA-c(RGDyK)2 ([2]; normal cells): about 50%; logP: -3.03 ± 0.33; fraction unbound [11]: ~0.71; tissue uptake at 1.5 h ([12]; Accumulation in kidneys): 15 to 17 %ID/g; tissue uptake at 0.5 h ([12]; Tumor uptake): 2.14 %ID/g; Tumor to blood ratio [13]: 2.8; Accumulation in kidneys ([13]; 1.5 h): 15 % ID/g; tissue to tissue ratio at 0.5 h ([14]; Tumor to blood ratio): 0.93; tissue to tissue ratio at 1.5 h ([14]; Tumor to blood ratio): 2.84; tissue to tissue ratio at 0.5 h ([14]; Tumor to kidney ratio): 0.14; tissue to tissue ratio at 1.5 h ([14]; Tumor to kidney ratio): 0.04; tissue to tissue ratio at 0.5 h ([14]; Tumor to muscle ratio): 3.1; tissue to tissue ratio at 1.5 h ([14]; Tumor to muscle ratio): 6.45; tissue to tissue ratio at 1.5 h [15]: 4.25; remaining at 0.5 h [16]: 98.2%; remaining at 1 h [16]: 98.2%; remaining at 2 h [16]: 98%; PET/CT visualization of the tumor ([1]; 30 and 90 min p.i., listed as 68Ga-substance P): did not visualize the tumor; also recorded: did not observe any substantial signal in tumors |
| N=C(N)NCCC[C@@H]1NC(=O)[C@H](CCCCNC(=O)CC[C@H](NC(=O)CCC(C(=O)O)N2CCN(CC(=O)O)CCN(CC(=O)O)CC2)C(=O)NCCCC[C@@H]2NC(=O)[C@@H](Cc3ccc(O)cc3)NC(=O)[C@H](CC(=O)O)NC(=O)CNC(=O)[C@H](CCCNC(=N)N)NC2=O)NC(=O)[C@@H](Cc2ccc(O)cc2)NC(=O)[C@H](CC(=O)O)NC(=O)CNC1=O (stereo partly drawn) [^68Ga-NODAGA-c(RGDyK)2, NODAGA-c(RGDyK)2, metal not drawn] | highest accumulation; also recorded: highest binding | 4.14 | 2.3 | 16.4 | 0.61 | 0.91 | 5.84 | 10.5 | -3.34 ± 0.13 | 99.51 ± 0.17 | 99.31 ± 0.11 | 99.02 ± 0.33 | 1.74 | 1.89 | 3.40 | 99.83 ± 0.11 | 99.74 ± 0.18 | 99.62 ± 0.21 | 98.66 ± 0.82 | 99.22 ± 0.19 | PET/CT visualization of the tumor ([1]; 30 and 90 min p.i.): highest accumulation of radioactivity; also recorded: best tumor images; tissue uptake at 0.5 h ([4]; tumor, Tumor uptake, 30 min p.i.): 6 %ID/g; % Stability in 0.1 M FeCl3 ([9]; 120 min): 99.17 ± 0.18%; % Stability in 6 mM DTPA ([10]; 60 min): 99.39 ± 0.54%; % Stability in 6 mM DTPA ([10]; 120 min): 99.06 ± 0.57% |
| N=C(N)NCCC[C@@H]1NC(=O)[C@H](CCCCNC(=O)CCC(C(=O)O)N2CCN(CC(=O)O)CCN(CC(=O)O)CC2)NC(=O)[C@@H](Cc2ccc(O)cc2)NC(=O)[C@H](CC(=O)O)NC(=O)CNC1=O (stereo partly drawn) [^68Ga-NODAGA-c(RGDyK), NODAGA-c(RGDyK), metal not drawn] | – | 4 | 1.9 | 23.1 | 0.36 | 0.9 | 3.23 | 6.51 | -3.05 ± 0.62 | 99.23 ± 0.18 | 99.14 ± 0.19 | 98.81 ± 0.33 | 2.74 | 1.31 | 3.21 | 99.82 ± 0.05 | 99.78 ± 0.12 | 99.72 ± 0.22 | 99.24 ± 0.44 | 98.56 ± 0.60 | Tumor to blood ratio [17]: 23.1; % Stability in 0.1 M FeCl3 ([9]; 120 min): 98.94 ± 0.42%; % Stability in 6 mM DTPA ([10]; 30 min): 99.65 ± 0.07%; % Stability in 6 mM DTPA ([10]; 60 min): 99.20 ± 0.37%; % Stability in 6 mM DTPA ([10]; 120 min): 99.23 ± 0.32% |
